Experimental findings from US20210015793A1, “COMPOUNDS FOR TREATING CNS- AND NEURODEGENERATIVE DISEASES” (ETH ZURICH, priority 2018, published 2021) are described below.

The test system of data set [1] is rats subjected to the CUMS protocol. As to the kind of experiment: Sucrose preference test (anhedonia) in rats subjected to CUMS. It counts as in vivo, rat. The following applies: treated during CUMS. As to the method:
The following stimuli were administered each week in a random order: two periods (7 h and 17 h) of 45° cage tilt; soaked cage for 17 h; food deprivation (24 h) and water deprivation (12 h), twice a week; paired housing (17 h); overnight illumination during the dark phase, twice a week; noise (85 dB) in the room for 5 h, twice a week; flashing light (60 flashes/min) for 6 h, three times a week (AbdAlla et al., Biomed. Res. Int. 2015:917156 (2015); El-faramawy et al., Pharmacol. Biochem. Behav. 91, 339-344 (2009)). The sucrose preference test (2% sucrose in water) was done immediately after a period of food and water deprivation.
Symptoms of depression and anhedonia induced by the CUMS protocol as a typical model of depression were determined by the sucrose preference test. For the sucrose preference test, rats (or mice) were trained to consume a sucrose solution (2%), which was put in the cage with a bottle of water. The sucrose consumption was determined at baseline for two weeks before the CUMS protocol (1 test per week, for 1 h, at 9-10 a.m.), and after 4 weeks of CUMS immediately after a period of food (24 h) and water (12 h) deprivation. The ratio of the sucrose-to-water consumption was determined. […] Similarly, the treatment effect of illustrative compounds on prevention of symptoms of depression was assessed by the sucrose preference test. […]

Data set [2] is described as follows: Safety and tolerability in healthy human research participants (phase-1 study). It counts as in vivo. As to the method:
Study design: The study was a three-part phase-1, randomized, placebo-controlled study of Compound-1F. The primary end-point was safety and tolerability. Secondary objectives were plasma pharmacokinetics data (part-1, part-2, part-3) and peripheral blood mononuclear cell MPP1 status (part-3).
The first part (part-1) was a single ascending dose-effect study with three cohorts of 4 healthy research participants each, who received a single dose of 20 mg, 40 mg or 60 mg in subsequent cohorts. Three drug-treated and one placebo-treated subjects were randomized in each cohort (2 males, 2 females; age: 35-65 years). After completion of safety assessment, blood was drawn for analysis of pharmacokinetics data.
In the second part (part-2) of the study, the daily dose was increased every two days until the final dose of 60 mg/day was reached, i.e. the daily dose was 20 mg on day-1 and day-2, 40 mg on day-3 and day-4, and 60 mg on day-5 until day-14. Blood was drawn before study begin for analysis of laboratory parameters and on day-14 for analysis of laboratory parameters and determination of pharmacokinetics data, at the indicated time points after administration of the last dose of 60 mg. All study participants (n=10; 7 males, 3 females; Caucasians; age: 37-66 years; 8 participants received drug, and two received placebo) were healthy and had the possibility to withdraw from the study at any time. All study participants wanted to complete the study.
In the third part (part-3) of the study, a cohort of 8 healthy elderly voluntary research participants (7 males, 1 female; age 60-73 years; all Caucasians) received a daily oral dose of 60 mg of Compound-1F for 28 days (6 participants received drug, 2 placebo). In part-3 of the study, blood was drawn before study begin for analysis of clinical laboratory parameters and MPP1 status, and on day-28 for analysis of laboratory parameters and MPP1 status, and 24 h after the last drug intake for measurement of serum concentration of Compound-1F. All participants of part-3 had the possibility to withdraw from the study at any time but all study participants wanted to complete the study.
The study participants were under the medical supervision of the Rabaa El Adaweya Medical Central Hospital, Cairo, Egypt (Clinical study director: Dr. Raafat Mahmood Fawzy). […] One participant in the placebo group and 1 participant in the drug treatment group (part-2 of the study) reported softer stools beginning on day-3 after drug/placebo intake. This side effect ended after completion of the study, and was most likely due to the intake of mannitol, which was used as an additive for formulation of study drug and placebo. There were no other adverse effects in part-1, part-2 and part-3 of the study.

Setting [3] is: healthy humans, 14 days of repeated once daily oral dosing.

With `O=C(C1=C(O)C(c2ccccc2)N(c2ccc3c(c2)OCO3)C1=O)C1CC1` (centres unmarked) [Compound-1, 1-(1,3-benzodioxol-5-yl)-4-(cyclopropane-carbonyl)-3-hydroxy-2-phenyl-2H-pyrrol-5-one], in data set [1] (16-month-old rats, 4 weeks CUMS, vs non-stressed control group), the “sucrose consumption in sucrose preference test” value was “not significantly different from the non-stressed control group”. In addition, the “CUMS-induced anhedonia in sucrose preference test” value in data set [1] (young rats (aged 4 months)) was “prevented the development of CUMS-induced anhedonia and symptoms of depression”.
As to `O=C(C1=C(O)C(c2ccc(F)cc2)N(c2ccc3c(c2)OCO3)C1=O)C1CC1` (centres unmarked) [Compound-1F, 1-(1,3-Benzodioxol-5-yl)-4-(cyclopropanecarbonyl)-2-(4-fluorophenyl)-3-hydroxy-2H-pyrrol-5-one], in data set [2] (all research participants, during and after the study (observation period 4 weeks)), the “clinical laboratory parameters and cardiovascular examination data (blood pressure, heart rate)” value is on record as “within the normal range”. The “drug-related adverse events (safety assessment)” value in data set [2] (elderly participants, 28 days once daily 60 mg) is “no drug-related adverse events”. In data set [2] (elderly participants, before and after 28 days of once daily 60 mg), the clinical laboratory findings entry is listed as “within the normal range”. Besides, in data set [2] (setting [3]), the “percentage of neutrophils and lymphocytes” value is “within the normal range”; the “total number of white blood cells” value is reported as “not altered”. Moreover, the “hematologic parameters (Hb, HCT, MCV, MCHC, RBCs) before vs after treatment” value in data set [2] (healthy humans, once daily 60 mg, 14 days of study) was “not significantly different”. Also, the “treatment related adverse effects (safety assessment)” value in data set [2] (healthy humans, oral Compound-1F, single ascending dose 20-60 mg) was “no treatment related adverse effects”. Moreover, the “kidney (serum urea, creatinine) and liver (AST, ALT) function parameters” value in data set [2] (healthy humans, repeated once daily 60 mg/d) was “within the normal range”. Also, in data set [2] (part-2 of the study, beginning on day-3, attributed to mannitol), the “participants in the drug treatment group reporting softer stools” value is on record as 1 participant.
